In data set [1] the test system is TLR7/8 signals (THP-1 cells). The data set is described as follows: IL-6 secretion from macrophage cells stimulated with R848 (Example 3). Format: cell-based, human. Conditions: for TLR7/8 signal suppression effects, MHP1 compared with hMHP4: 30.5 μM each; for TLR7/8 signal suppression effects, MHP1 compared with hMHP4 / increase in the amount of IL-6 secretion by R848: FIG. 6; for TLR7/8 signals / increase in the amount of IL-6 secretion by R848: R848 10 μg/ml; for TLR7/8 signals: conclusion from FIG. 6; for increase in the amount of IL-6 secretion by R848: peptide 30.5 μM, 24 hours, ELISA. How it is done: The influence of the RANKL peptide on the amount of proinflammatory cytokines (IL-6) secreted from macrophage cells by the stimulation of a TLR7/8 ligand (R848) was examined. The specific examination procedures were as follows.
THP-1 cells (human-derived macrophage cell line) were cultured in a DMEM medium (+4% FBS) containing MHP1 or hMHP4 (final concentration: 30.5 μM) and R848 (final concentration: 10 μg/ml) or a DMEM medium (+4% FBS) containing R848 (final concentration: 10 μg/ml) alone for 24 hours by a standard method. After culturing, the concentration of IL-6 in the medium was measured by the ELISA method.

Data set [2] deals with psoriatic symptoms caused by the administration of imiquimod (IMQ). The data set is described as follows: Imiquimod-induced psoriatic symptoms in mice, MHP4 hydrophilic petrolatum ointment (Example 8). Format: in vivo. Conditions: MHP4 hydrophilic petrolatum ointment 375 ng/15 mg per mouse applied every day; 5% imiquimod; BALB/c male mice; FIGS. 11 to 14. Here is the method:
Specifically, the following procedure was performed according to the dosing schedule shown in FIG. 1 except that the first application of an ointment was performed 6 hours after the first imiquimod application. In Example 1, the RANKL peptide aqueous solution was administered, while a RANKL peptide ointment was administered in this example. As test animals, BALB/c 9-week-old male mice whose back hair was partially removed were prepared. 5% imiquimod (IMQ) was applied to the hair-removed portion in the back and ear of each mouse (62.5 mg per mouse) (day 0 (0 d)). 6 hours later, (1) an MHP4 hydrophilic petrolatum ointment (375 ng (MHP4)/15 mg (hydrophilic petrolatum) per mouse, n=2), hydrophilic petrolatum (control (untreated), n=2), or MCT/BBP (Marduox (tradename) ointment) (15 mg per mouse, n=2) was individually applied to the back and ear. Thereafter, imiquimod and item (1) above were applied every day (from day 1 (1 d)). […] The degree of redness in the back, the degree of white scaling in the back, and the degree of skin thickening in the back were quantified according to the description in the document (van der Fits, L. et al. Imiquimod-induced psoriasis-like skin inflammation in mice is mediated via the IL-23/IL-17 axis. J. Immunol. 182, 5836-45 (2009) (evaluation criteria: none (0), mild (1), moderate (2), severe (3), and very severe (4)). FIGS. 12 to 14 show the results.

Data set [3] relates to TLR7/8 signals (MG6 cells). Nature of the data set: Proinflammatory cytokine secretion from microglial cells stimulated with R848 (Example 2). It counts as cell-based, mouse. Conditions: R848 1 μg/ml; for increase in the amount of IL-6 secretion by R848: MHP4 7.6, 15.3 or 30.5 μM, FIG. 5a, 5c; for TLR7/8 signals: conclusion from FIG. 5. How it is done: The influence of the RANKL peptide on the amount of proinflammatory cytokines (IL-6 and TFNα) secreted from microglial cells by the stimulation of imidazoquinoline resiquimod (R848 produced by Invitrogen), which is a TLR7/8 ligand, was examined. The specific examination procedures were as follows.
MG6 cells (mouse-derived microglial cell line) were cultured in a DMEM medium (+4% FBS) containing MHP1 or MHP4 (final concentration: 7.6, 15.3, or 30.5 μM) and R848 (final concentration: 1 μg/ml) or a DMEM medium (+4% FBS) containing R848 (final concentration: 1 μg/ml) alone for 24 hours by a standard method. After culturing, the concentrations of IL-6 and TNFα in the medium were measured by the ELISA method. In the Examples of the present application, the ELISA method was performed using a kit (Quantikine ELISA Mouse TNF-a or Quantikine ELISA Mouse IL-6, produced by R&D Systems).

The subject of the next data set is MG6 cells. Nature of the data set: Stability of RANKL peptide: cytokine secretion inhibition in LPS-stimulated MG6 cells after storage (Example 7). Format: cell-based, mouse. How it is done: The stability of the RANKL peptide was examined. The specific examination procedures were as follows.
MHP1 was dissolved in water to a concentration of 2 mg/ml, and stored at 4° C. for 208 days. Thereafter, MG6 cells (mouse-derived microglial cell line) were cultured in a DMEM medium (+4% FBS) containing MHP1 (final concentration: 100 μg/ml) and LPS (final concentration: 2 ng/ml) for 24 hours by a standard method. After culturing, the concentrations of IL-6 and TNFα in the medium were measured by the ELISA method.

Another data set has as its system NFκB (p65). Nature of the data set: NFκB (p65) activation in RAW264.7 cells, TransAM NFkB p65 Kit (Example 5). Conditions: MHP1 100 μg/ml, collected after 10 minutes, FIG. 8C. Format: cell-based. Here is the method: (§1) It has recently been reported that the administration of RANKL protein to mice induces the activation of osteoclasts. Accordingly, the influence of the RANKL peptide on osteoclasts was examined. The specific examination procedures were as follows.
(§2) MHP1 (final concentration: 100 μg/ml) or RANKL protein (final concentration: 10 ng/ml) was added to a medium (DMEM medium (+4% FBS)) in which RAW264.7 cells were cultured, and the cells were collected after 10 minutes and 3 days.
(§3) For the samples collected after 10 minutes, nuclear proteins of the cells were extracted using the Nuclear Extract Kit (Active Motif), and the degree of NFκB (p65) activation was measured by the TransAM NFkB p65 Kit (Active Motif). On the other hand, for the samples collected after 3 days, the mRNA expression levels of NFATc1 and ACP5 were analyzed by real-time RT-PCR.

Data set [4] concerns osteoclast precursor cells. The data set is described as follows: Osteoclast differentiation, Osteoclast Culture Kit V-2, TRAP staining (Example 6). It counts as cell-based. Conditions: 7 days. Here is the method: Osteoclast Culture Kit V-2 (OSC33, produced by Cosmo Bio Co., Ltd.) was used. According to the manual of the kit, the culturing of osteoclast precursor cells was started in the presence of M-CSF (final concentration: 50 ng/ml) in the A and B groups, and in the presence of M-CSF (final concentration: 50 ng/ml) and MHP1 (final concentration: 30, 50, or 100 μg/ml) in the C and D groups. Thereafter, 24 hours to 7 days after the start of culturing, the A group was cultured in the presence of M-CSF (final concentration: 50 ng/ml), the B group was cultured in the presence of M-CSF (final concentration: 50 ng/ml) and RANKL protein (final concentration: 50 ng/ml), the C group was cultured in the presence of M-CSF (final concentration: 50 ng/ml) and MHP1 (final concentration: 30, 50, or 100 μg/ml), and the D group was cultured in the presence of M-CSF (final concentration: 50 ng/ml), RANKL protein (final concentration: 50 ng/ml), and MHP1 (final concentration: 30, 50, or 100 μg/ml). After culturing, the cells were subjected to TRAP staining and nuclear staining according to a standard method.

In data set [5] the test system is psoriatic symptoms caused by the administration of imiquimod (IMQ). Nature of the data set: Imiquimod-induced psoriatic symptoms in mice, MHP1 aqueous solution (Example 1). It counts as in vivo. Conditions: MHP1 aqueous solution 200 μg/100 μL per mouse applied to back and ear every day; 5% imiquimod; BALB/c female mice; FIGS. 2 to 4. Here is the method: As test animals, BALB/c 6-week-old female mice whose back hair was partially removed were prepared. 5% imiquimod (IMQ) was applied to the hair-removed portion in the back and ear of each mouse (62.5 mg per mouse) (day 0 (0 d)). One day later, (1) an MHP1 aqueous solution (200 μg/100 μL per mouse, n=2) or dH2O (control, n=2) was individually applied to the back and ear, followed by the application of (2) 5% imiquimod (IMQ) (62.5 mg per mouse (day 1 (1 d)). Thereafter, items (1) and (2) above were applied every day for 5 days (day 2 to 6 (2 d to 6 d)).
The degree of white scaling in the back was quantified in accordance with the description of the document (van der Fits, L. et al. Imiquimod-induced psoriasis-like skin inflammation in mice is mediated via the IL-23/IL-17 axis. J. Immunol. 182, 5836-45 (2009)) (evaluation criteria: none (0), mild (1), moderate (2), severe (3), and very severe (4)).
Additionally, the ear thickness was measured.

A further data set deals with NFATc1 and ACP5 mRNA. The data set is described as follows: Osteoclast-related mRNA expression in RAW264.7 cells, real-time RT-PCR (Example 5). Format: cell-based. Conditions: MHP1 100 μg/ml, collected after 3 days, FIG. 8A, 8B. How it is done:
as §1, §2, §3

Turning to “LMVYVTKTSIKIPSS (listed as Homo sapiens) [hMHP4]”, in data set [1], the “TLR7/8 signal suppression effects, MHP1 compared with hMHP4” value is recorded as “similar”; the TLR7/8 signals result was “suppressed the TLR7/8 signals”; the “increase in the amount of IL-6 secretion by R848” value is “suppressed”.

Consider “LMVYVVKTSIKIPSS (listed as Mus musculus) [MHP4]”, for which the “psoriasis symptoms (back photographs, degree of redness, white scaling, skin thickening)” value in data set [2] is given as “improved psoriasis symptoms”. Besides, in data set [3] (MHP1 30.5 μM, 24 hours, ELISA), the “increase in the amount of IL-6 secretion by R848” value was “suppressed”. Also, the TLR7/8 signals result in data set [3] is listed as “suppressed the TLR7/8 signals”.

“LMVYVVKTSIKIPSSHNLMKGGSTKNWSGN (listed as Mus musculus) [MHP1]”: the stability entry with MG6 cells (2 mg/ml in water, 4° C., 208 days) is on record as “high”. The “proinflammatory cytokine (IL-6, TNFα) secretion-inhibiting effect after long-term storage” value in the data set on MG6 cells (MHP1 2 mg/ml in water stored at 4° C. for 208 days, then 100 μg/ml with LPS 2 ng/ml, MG6 cells, 24 hours, FIG. 10) is listed as “in the same manner as MHP1 before storage”. Moreover, the “NFκB (p65) activation” value in the data set with NFκB (p65) is given as “slightly activated”. The “differentiation of osteoclasts when MHP1 was added (without RANKL protein)” value in data set [4] (M-CSF 50 ng/ml and MHP1 30, 50 or 100 μg/ml, TRAP and nuclear staining, FIG. 9 (b)) is “did not occur”. The “differentiation of osteoclasts promoted by RANKL” value in data set [4] (M-CSF 50 ng/ml, RANKL protein 50 ng/ml and MHP1 30, 50 or 100 μg/ml, TRAP staining, FIG. 9 (a)) is “inhibited”. Also, the “increase in the amount of IL-6 secretion by R848” value in data set [3] (MHP1 30.5 μM, 24 hours, ELISA) was “suppressed”. Further, the “increase in the amount of TNFα secretion by R848” value in data set [3] (MHP1 30.5 μM, 24 hours, ELISA, FIG. 5b) was “suppressed”. Further, the TLR7/8 signals result in data set [3] is recorded as “suppressed the TLR7/8 signals”. Moreover, in data set [1], the “TLR7/8 signal suppression effects, MHP1 compared with hMHP4” value is “similar”; the TLR7/8 signals entry was “suppressed the TLR7/8 signals”; the “increase in the amount of IL-6 secretion by R848” value is “suppressed”. Besides, the “psoriatic symptoms (back photographs, degree of white scaling, ear thickness)” value in data set [5] is listed as “improved psoriatic symptoms”. Besides, the “expression of osteoclast-related mRNA (NFATc1, ACP5)” value in the data set with NFATc1 and ACP5 mRNA is listed as “did not promote”.
